Conditions: same protocol, no polymer

Q: Which “water solubility of Amphotericin B” value does the source give for `C[C@@H]1[C@H](O)[C@@H](C)/C=C/C=C/C=C/C=C/C=C/C=C/C=C/[C@H](O[C@@H]2O[C@H](C)[C@@H](O)[C@H](N)[C@@H]2O)C[C@@H]2O[C@](O)(C[C@@H](O)C[C@@H](O)[C@H](O)CC[C@@H](O)C[C@@H](O)CC(=O)O[C@H]1C)C[C@H](O)[C@H]2C(=O)O` [Amphotericin B] here?
A: Its value is “approx. 0.4 μg/mL”.

From patent publication US9402908B2, “Polymeric delivery systems for active agents” (priority 2008, dated 2016)
